Test results from patent publication US9943599B2, “Therapeutic applications of calcium electroporation to effectively induce tumor necrosis” (Herlev Hospital, priority 2011, dated 2018).

Legend:
[1] = test system: DC-3F, K-562 and Lewis Lung Carcinoma cells; experiment: Hypothetical sonoporation in vitro, MTT assay; assay type: cell-based, Chinese hamster, human, murine
Protocol: Three cell lines are used for in vitro experiments, DC-3F, a transformed Chinese hamster lung fibroblast cell line; K-562, a human leukemia cell line; and Lewis Lung Carcinoma, a murine lung carcinoma cell line. All cell lines are tested for mycoplasma. Cells are maintained in RPMI 1640 culture medium with 10% fetal calf serum, penicillin and streptomycin at 37° C. and 5% CO2. After harvesting, cells are washed and diluted in HEPES buffer containing 10 mM HEPES, 250 mM sucrose and 1 mM MgCl2 in sterile. The cell suspension with 0, 0.5, 1 and 3 mM CaCl2 is added to a sample tube which is placed in the ultrasound exposure chamber and exposed to low-frequency ultrasound at room temperature. A function generator is programmed to provide a wave of selected voltage, duty cycle, burst length, and total exposure time.
After 20 min at 37° C. and 5% CO2 cells are diluted in RPMI 1640 culture medium with 10% fetal calf serum and penicillin-streptomycin and seeded in 96-well plates at a concentration of 3.1×10^4 cells/100 μl.
Difference between cells treated with and without ultrasound in identical buffer is assessed using two-way analysis of variance CANOVA) with post least-squares-means test with Bonferroni correction for multiple comparisons.

[2] = test system: B16 (murine melanoma) tumors; experiment: Fraction of necrosis after calcium electroporation, B16 tumors; assay type: in vivo, NMRI-Foxn1^nu mice; conditions: 168 mM CaCl2, half tumor volume, first days after treatment
Protocol: (§1) LPB, a murine sarcoma cell line, B16, a murine malignant melanoma cell line, MDA-MB231, human a breast cancer cell line, HT29, a human colon cancer cell line, and SW780, a human bladder cancer cell line were used for the in vivo experiment. The cells were tested by rapid MAP27 panel (Taconic, Hudson N.Y.) before use without signs of infection. 2×10^5 cells (B16), 8×10^5 cells (LPB), 2.5×10^6 cells (MDA-MB231), and 5×10^6 cells (HT29 and SW780) in 100 μl PBS were injected subcutaneously in the flank of NMRI-Foxn1^nu mice (Harlan, Indianapolis, Ind.) that were 9-11 weeks old. Mice were randomised at a tumor volume above 85 mm^3 and tumors were treated with injection of isotonic calcium-chloride solution (168 mM CaCI2) and electroporation (8 pulses of 1.0 kv/cm for 100 μs and a frequency of 1 Hz) using a 6 mm plate electrode and a square wave electroporator (CLINIPORATOR®, IGEA, Modena, Italy). Tumor volume was calculated as ab^2n/6, where a is the largest diameter and b is the largest diameter perpendicular to a. The injected volume was half of the tumor volume. […] The fraction of necrosis within the tumor was estimated from HE-sections by stereological point counting using a light microscope, evaluated by a pathologist, blinded with respect to treatment status.
(§2) The difference in fraction of necrosis at different time after treatment was assessed using student's t-test.

[3] = test system: HT29 (human colon cancer) tumors; experiment: Fraction of necrosis after calcium electroporation, HT29 tumors; assay type: in vivo, NMRI-Foxn1^nu mice
Protocol: as §1, §2

[4] = test system: CT26 (murine colon carcinoma) tumors; experiment: Calcium with sonoporation, CT26 tumor volume; assay type: in vivo, Balb/c mice
Protocol: CT26, a murine colon carcinoma cell line was used for the in vivo experiments. The cells were tested by mycoplasma detection kit (Sigma, St. Louis, Mo.) before use without signs of infection. Cells were maintained in vitro in DMEM culture medium (Sigma, St. Louis, Mo.) with 10% fetal calf serum (Sigma, St. Louis, Mo.), L-glutamine, penicillin and streptomycin at 37° C. and 5% CO2. All antibiotics were removed from culture media 24 hours before tumour inoculation. 1.0×10^6 cells/200 μl serum free DMEM were injected subcutaneously in the right flank of 6-8 week old female Balb/c mice, in condition weighing 16-22 g. Mice were randomised at an average tumor size of approximately 5.0 mm in largest diameter and tumors were treated with 1) injection of isotonic calcium-chloride solution (168 mM CaCl2) and sonoporation (3.5 W/cm^2 at 1 MHz and 100% duty cycle for 2 minutes) using a SONITRON® 2000 ultrasound apparatus (Rich-Mar, Inola, Okla.), 2) sonoporation alone (same parameters as above), 3) isotonic calcium-chloride solution injection, or 4) no treatment. Tumor volume was calculated as ab^2n/6, where a is the largest diameter and b is the largest diameter perpendicular to a. […]
The difference in tumor volume between the different treatment groups at different time after treatment was assessed using student's t-test.

DC-3F cells = experiment: Calcium electroporation with two calcium sources, MTT assay; assay type: cell-based, Chinese hamster; conditions: 1 mM, 8 pulses, 0-1.6 kV/cm; MTT 1 day after treatment
Protocol: DC-3F cells were electroporated as described in example 1 with 1 mM calcium chloride (prepared by SAD, Denmark) or 1 mM calcium glubionate (Sandoz, Holzkirchen, Germany). The calcium concentration was chosen based on the experiment described in example 1 where 1 mM calcium is the lowest concentration inducing high cell death. The cells were electroporated with 8 pulses of […] at 1 Hz and increasing electric field (0-1.6 kV/cm). After 20 min at 37° C. and 5% CO2 cells were diluted in RPMI 1640 culture medium with 10% fetal calf serum and penicillin-streptomycin and seeded in 96-well plates at a concentration of 3.1×10^4 cells/100 μl.

[5] = test system: H69 (human small cell lung cancer) tumors; experiment: Tumor volume and fluorescence intensity of H69 tumors on nude mice; conditions: for necrosis of skin / healthy tissue around the tumor: injected volume equivalent to the tumor volume (1 to 1 ratio)
[6] = 168 mM CaCl2 with electroporation

`[Ca+2].[Cl-].[Cl-]` [calcium chloride] was tested, and the cell death ([1]; with ultrasound, 0 to 3 mM calcium) was “dose dependent cell death”, the “effect on cell viability” value ([1]; without ultrasound, high calcium concentrations) was “no effect on cell viability” and the “fraction of necrosis in tumors, course” value [2] was “progressive necrosis”. The “fraction of necrosis in tumors, course” value ([3]; 168 mM CaCl2, half tumor volume, electroporation, first days after treatment) was “progressive necrosis”, the tumor re-growth ([3]; 6 days after the treatment) was “re-growth” and the treated tumors eliminated ([4]; 168 mM CaCl2, half tumor volume, sonoporation 3.5 W/cm^2, 1 MHz, 2 minutes, 7/8) was 88%. The tumor volume ([4]; isotonic calcium-chloride injection alone (control)) was “continues to increase”, the “effect of calcium electroporation on cell viability, calcium chloride versus calcium glubionate” value (DC-3F cells) was “no difference” and the treated tumors eliminated ([5]; 168 mM CaCl2 intratumoral with electroporation (8 pulses 1.0 kV/cm, 100 μs, 1 Hz), 8/9) was 89%. For the same compound, the “healing of ulceration, average” value [5, 6] was 18 days, the “healing of ulceration, range” value [5, 6] was 9 to 24 days and the “ulceration of treated tumors” value [5, 6] was “occurs in all”. The “fluorescence intensity of tumors” value ([5]; 168 mM CaCl2 with electroporation, stays at background levels) was “decrease drastically”, the “necrosis of skin / healthy tissue around the tumor” value ([5]; with electroporation, listed as Ca^2+-EP) was “skin necrosis” and the “necrosis of skin / healthy tissue around the tumor” value ([5]; with electroporation, listed as calcium solution) was “necrotic effect on the healthy tissues surrounding the neoplasm”. For the same compound, the “necrosis of surrounding tissue” value ([5]; injected volume ratio 0.5 of tumor volume, with electroporation) was “without creating necrosis in the surrounding tissue” and the “tumor volume doubling time” value ([5]; isotonic calcium-chloride without electroporation) was 6.3 days.
